According to patent US20180244611A1, “Modulators of the Cystic Fibrosis Transmembrane Conductance Regulator Protein and Methods of Use” (AbbVie S.à.r.l., priority 2017, published 2018):

Legend:
F508delCFTR [1] = target: T1, F508delCFTR (Homo sapiens, UniProt P13569, DEL508-508); assay: Cell Surface Expression-Horse Radish Peroxidase (CSE-HRP) assay, test compound without co-corrector; assay type: cell-based; settings: for Emax: maximum at any tested concentration, without co-corrector; for EC50: test compound without co-corrector;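 for Emax: percent of on-plate 2 µM positive control corrector response over DMSO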
T1 construct: expressed in transfected cells; host or cells: CFBE41o- human lung-derived epithelial cells (CFBE41o-F508delCFTR-HRP), doxycycline-inducible
In short: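 Compound without co-corrector was tested at eight 3-fold concentrations, top 20 μM, for 18-24 h at 33° C on doxycycline-induced (0.5 μg/mL, 72 h) CFBE41o- F508delCFTR-HRP cells. After DPBS washes, luminol luminescence gave % activity relative to on-plate positive control minus DMSO; EC50 came from triplicate-plate sigmoidal fitting.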

F508delCFTR [2] = target: T1, F508delCFTR; assay: Cell Surface Expression-Horse Radish Peroxidase (CSE-HRP) assay, test compound with co-corrector; assay type: cell-based; settings: for Maximum % activity (with co-corrector): maximum at any tested concentration;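 for Maximum % activity (with co-corrector): percent of 2 µM positive control corrector over DMSO; co-corrector is that same compound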
In short: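 Surface-expression read-out: luminol luminescence from an HRP tag in the fourth exofacial loop of F508delCFTR, in doxycycline-induced (0.5 μg/mL, 72 h) CFBE41o- cells. Compound plus 2 μM co-corrector added for 18-24 h at 33° C., 8-point 3-fold series up to 20 μM. EC50 from a sigmoidal fit with variable Hill slope, normalised to positive control, triplicate plates.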

[3] = normalized to positive control, with 2 μM co-corrector
[4] = normalized to on-plate positive control
[5] = CSE-HRP assay, test compound with 2 μM co-corrector
[6] = normalized to on-plate positive control, with 2 μM co-corrector

T1 sequence (P13569 with tags, fused parts or gaps DEL508-508): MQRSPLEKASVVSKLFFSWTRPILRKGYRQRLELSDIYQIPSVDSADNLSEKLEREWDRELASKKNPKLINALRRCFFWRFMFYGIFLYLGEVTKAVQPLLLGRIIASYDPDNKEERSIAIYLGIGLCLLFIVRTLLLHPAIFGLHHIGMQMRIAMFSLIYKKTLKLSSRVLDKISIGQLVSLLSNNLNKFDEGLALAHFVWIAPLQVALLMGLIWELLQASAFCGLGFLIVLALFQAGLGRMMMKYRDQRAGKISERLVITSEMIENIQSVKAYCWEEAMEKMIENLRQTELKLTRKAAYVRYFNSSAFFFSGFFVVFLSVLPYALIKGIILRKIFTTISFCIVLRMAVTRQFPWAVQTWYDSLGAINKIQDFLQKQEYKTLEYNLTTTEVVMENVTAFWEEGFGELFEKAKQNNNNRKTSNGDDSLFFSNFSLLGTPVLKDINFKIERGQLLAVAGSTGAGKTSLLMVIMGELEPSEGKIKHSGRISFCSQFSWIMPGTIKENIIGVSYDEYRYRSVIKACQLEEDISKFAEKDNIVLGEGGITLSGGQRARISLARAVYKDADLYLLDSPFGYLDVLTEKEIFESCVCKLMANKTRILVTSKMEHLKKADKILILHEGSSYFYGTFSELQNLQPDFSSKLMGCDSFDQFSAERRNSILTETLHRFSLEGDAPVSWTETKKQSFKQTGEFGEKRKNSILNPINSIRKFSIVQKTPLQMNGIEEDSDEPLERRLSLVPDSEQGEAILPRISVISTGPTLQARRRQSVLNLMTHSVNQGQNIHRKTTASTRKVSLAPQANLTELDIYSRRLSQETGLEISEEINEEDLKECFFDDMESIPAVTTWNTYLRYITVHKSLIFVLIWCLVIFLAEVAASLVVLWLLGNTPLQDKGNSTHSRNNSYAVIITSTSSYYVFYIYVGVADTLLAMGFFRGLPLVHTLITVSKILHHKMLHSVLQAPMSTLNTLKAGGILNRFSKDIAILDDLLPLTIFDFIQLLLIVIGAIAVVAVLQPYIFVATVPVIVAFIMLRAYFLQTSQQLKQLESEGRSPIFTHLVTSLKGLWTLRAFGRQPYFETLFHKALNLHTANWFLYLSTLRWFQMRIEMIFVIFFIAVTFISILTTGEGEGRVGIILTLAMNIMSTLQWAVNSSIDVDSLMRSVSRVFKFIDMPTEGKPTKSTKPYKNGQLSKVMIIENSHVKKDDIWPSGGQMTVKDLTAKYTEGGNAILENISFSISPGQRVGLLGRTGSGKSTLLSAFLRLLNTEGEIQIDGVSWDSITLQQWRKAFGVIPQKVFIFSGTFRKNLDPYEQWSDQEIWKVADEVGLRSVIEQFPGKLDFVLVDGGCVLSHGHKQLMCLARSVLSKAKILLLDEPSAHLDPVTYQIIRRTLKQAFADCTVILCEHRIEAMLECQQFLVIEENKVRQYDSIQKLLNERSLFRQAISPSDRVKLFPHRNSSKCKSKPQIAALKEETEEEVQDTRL

SMILES | Emax (F508delCFTR [1]; normalized to positive control) | EC50 (F508delCFTR [1]) | Maximum % activity (with co-corrector) (F508delCFTR [2]; [3]) | EC50 (F508delCFTR [2]; with 2 μM co-corrector) | EC50 (F508delCFTR [1]; CSE-HRP assay) | Emax (F508delCFTR [1]; [4]) | EC50 (F508delCFTR [2]; [5]) | Maximum % activity (with co-corrector) (F508delCFTR [2]; [6])
Cc1ccccc1S(=O)(=O)NC(=O)C1CCc2c(-c3ccc(N4CCCCC4)nc3)cccc21 (stereo not shown) [III-86] | 50 to 150% | 3 to 10 µM | ++ (≥150 and <350) | < 3 µM |  |  |  | 
Cc1ccccc1S(=O)(=O)NC(=O)C1CCc2c(-c3ccc(N4CCN(C)CC4)nc3)cccc21 (stereo not shown) [III-87] | < 50% | ≥ 10 µM | + (<150) | ≥ 10 µM |  |  |  | 
Cc1ccccc1S(=O)(=O)NC(=O)C1CCc2c(-c3cccnc3C)cccc21 (stereo not shown) [III-88] | < 50% | ≥ 10 µM | + (<150) | ≥ 10 µM |  |  |  | 
Cc1ccccc1S(=O)(=O)NC(=O)C1CCc2c(-c3ccc(F)nc3)cccc21 (stereo not shown) [III-89] | < 50% | ≥ 10 µM | ++ (≥150 and <350) | 3 to 10 µM |  |  |  | 
Cc1ccccc1S(=O)(=O)NC(=O)C1CCc2c(-c3ccc(N(C)C)nc3)cccc21 (stereo not shown) [III-90] | < 50% | ≥ 10 µM | + (<150) | ≥ 10 µM |  |  |  | 
Cc1ccccc1S(=O)(=O)NC(=O)C1CCc2c(-c3cncc(F)c3)cccc21 (stereo not shown) [III-91] |  |  |  |  | ≥ 10 µM | < 50% | ≥ 10 µM | + (<150)
Cc1cncc(-c2cccc3c2CCC3C(=O)NS(=O)(=O)c2ccccc2C)c1 (stereo not shown) [III-92] |  |  |  |  | ≥ 10 µM | < 50% | ≥ 10 µM | + (<150)
Cc1ccccc1S(=O)(=O)NC(=O)C1CCc2c(-c3ccnc(F)c3)cccc21 (stereo not shown) [III-93] |  |  |  |  | ≥ 10 µM | < 50% | 3 to 10 µM | ++ (≥150 and <350)
Cc1ccccc1S(=O)(=O)NC(=O)C1CCc2c(-c3ccncc3F)cccc21 (stereo not shown) [III-94] |  |  |  |  | ≥ 10 µM | < 50% | 3 to 10 µM | ++ (≥150 and <350)
Cc1cnccc1-c1cccc2c1CCC2C(=O)NS(=O)(=O)c1ccccc1C (stereo not shown) [III-95] |  |  |  |  | ≥ 10 µM | < 50% | ≥ 10 µM | + (<150)
Cc1cc(-c2cccc3c2CCC3C(=O)NS(=O)(=O)c2ccccc2C)ccn1 (stereo not shown) [III-96] |  |  |  |  | ≥ 10 µM | < 50% | ≥ 10 µM | + (<150)
Cc1ccccc1S(=O)(=O)NC(=O)C1CCc2c(-c3cn[nH]c3)cccc21 (stereo not shown) [III-97] |  |  |  |  | ≥ 10 µM | < 50% | ≥ 10 µM | + (<150)
Cc1ccccc1S(=O)(=O)NC(=O)C1CCc2c(-c3ccn[nH]3)cccc21 (stereo not shown) [III-98] |  |  |  |  | ≥ 10 µM | < 50% | ≥ 10 µM | + (<150)
Cc1ccccc1S(=O)(=O)NC(=O)C1CCc2c(-c3ccsc3)cccc21 (stereo not shown) [III-99] |  |  |  |  | 3 to 10 µM | 50 to 150% | 3 to 10 µM | +++ (≥350)
Cc1ccccc1S(=O)(=O)NC(=O)C1CCc2c(-c3ccc(N4CCOCC4)nc3)cccc21 (stereo not shown) [III-100] |  |  |  |  | ≥ 10 µM | < 50% | 3 to 10 µM | + (<150)
Cc1ccccc1S(=O)(=O)NC(=O)C1CCc2c(-c3c[nH]nc3C)cccc21 (stereo not shown) [III-101] |  |  |  |  | ≥ 10 µM | < 50% | ≥ 10 µM | + (<150)
Cc1ccccc1S(=O)(=O)NC(=O)C1CCc2c(-c3cnn(C)c3)cccc21 (stereo not shown) [III-102] |  |  |  |  | ≥ 10 µM | < 50% | ≥ 10 µM | + (<150)
Cc1ccc(-c2cccc3c2CCC3C(=O)NS(=O)(=O)c2ccccc2C)o1 (stereo not shown) [III-103] |  |  |  |  | ≥ 10 µM | < 50% | 3 to 10 µM | ++ (≥150 and <350)
Cc1ccccc1S(=O)(=O)NC(=O)C1CCc2c(-c3c(C)nn(C)c3C)cccc21 (stereo not shown) [III-105] |  |  |  |  | ≥ 10 µM | < 50% | ≥ 10 µM | + (<150)
Cc1ccccc1S(=O)(=O)NC(=O)C1CCc2c(-c3ccnn3C)cccc21 (stereo not shown) [III-106] |  |  |  |  | ≥ 10 µM | < 50% | ≥ 10 µM | + (<150)
COc1cccc2c1CCC[C@H]2C(=O)NS(=O)(=O)c1cccnc1N [III-107] |  |  |  |  | 3 to 10 µM | 50 to 150% | 3 to 10 µM | +++ (≥350)
Cc1ccc2c(c1)CCC2(C)C(=O)NS(=O)(=O)c1cccc(N)n1 (stereo not shown) [III-108] |  |  |  |  | 3 to 10 µM | 50 to 150% | 3 to 10 µM | ++ (≥150 and <350)
COc1cccc2c1CCC[C@H]2C(=O)NS(=O)(=O)c1cccc(N)n1 [III-109] |  |  |  |  | ≥ 10 µM | < 50% | ≥ 10 µM | + (<150)
Nc1cccc(S(=O)(=O)NC(=O)C2CCCc3cccc(Cl)c32)n1 (stereo not shown) [III-110] |  |  |  |  | ≥ 10 µM | < 50% | ≥ 10 µM | + (<150)
CCC1(C(=O)NS(=O)(=O)c2ccc(Cl)cc2Cl)CCc2c(Cl)cccc21 (stereo not shown) [III-113] |  |  |  |  | ≥ 10 µM | < 50% | < 3 µM | ++ (≥150 and <350)
CCC1(C(=O)NS(=O)(=O)c2ccc(C)cc2C)CCc2c(Cl)cccc21 (stereo not shown) [III-114] |  |  |  |  | 3 to 10 µM | < 50% | < 3 µM | ++ (≥150 and <350)
CCC1(C(=O)NS(=O)(=O)c2c(F)cccc2F)CCc2c(Cl)cccc21 (stereo not shown) [III-115] |  |  |  |  | < 3 µM | < 50% | < 3 µM | ++ (≥150 and <350)
CCC1(C(=O)NS(=O)(=O)c2cc(Cl)ccc2Cl)CCc2c(Cl)cccc21 (stereo not shown) [III-116] |  |  |  |  | ≥ 10 µM | < 50% | ≥ 10 µM | + (<150)
